Measured values taken from patent US20140357512A1, “HISTONE DEACETYLASE (HDAC) BIOMARKERS IN MULTIPLE MYELOMA” (priority 2013, published 2014).

Test system: human myeloma cell line MM.1S
Assay: SILAC acetylated-lysine peptide profiling, HDAC inhibitor vs DMSO (light/heavy ratio)
Assay type: cell-based
Text: An embodiment of the invention comprises utilizing the SILAC method in order to quantitate changes in protein expression between two or more populations of cells. The SILAC method is a technique based on mass spectrometry that detects differences in protein abundance among samples using non-radioactive isotopic labeling. The SILAC method is known in the art, and described in detail in Ong et al., “Stable Isotope Labeling by Amino Acids in Cell Culture, SILAC, as a Simple and Accurate Approach to Expression Proteomics”, Molecular & Cellular Proteomics, vol. 1, pp. 376-386 (2002), which is incorporated herein by reference in its entirety.
Briefly, the SILAC method involves growing two populations of cells in cell culture. The first population of cells is grown in growth media containing normal amino acids (“normal media”). The second population of cells is grown in media lacking a standard essential amino acid (such as lysine), but is then supplemented with a non-radioactive, isotopically labeled form of that essential amino acid (such as lysine labeled with ^13C atoms, rather than normal ^12C atoms), which is called “heavy media”. When the two populations of cells are each growing in the medium, they incorporate the amino acids into all of their proteins. The growth of cells maintained in the heavy media is no different from that in normal media. All peptides containing the heavy amino acids are heavier than their normal counterparts. The cells from each of the two populations of cells are lysed. The lysates from each of the two cell populations are then combined. The combined cell lysates are then analyzed by mass spectrometry. Pairs of chemically identical peptides of different stable isotope composition can be differentiated in a mass spectrometer due to their difference in mass. The ratio of peak intensities in the mass spectrum for such peptide pairs reflects the abundance ratio for the two proteins.
This example describes SILAC studies that were performed to compare the effects of three different HDAC inhibitors (Compound A, Compound B, and tubastatin A) to a control on a human multiple myeloma cell line. The HDAC inhibitors were also compared amongst themselves to determine differences in their effects.
A human myeloma cell line MM.1S was grown using either ^12C (light) or ^13C (heavy) lysine containing culture medium. The “heavy” cells were treated with DMSO as the control, and the “light” cells were treated with a single HDAC inhibitor at 37° C. for 6 hours. The heavy and light cells were lysed, and the lysates were mixed in 1:1 ratio and digested with the protease trypsin. The acetylated lysine containing peptides (due to the action of the HDAC inhibitor) in the digested peptide pool were captured by a non-specific anti-acetylated lysine antibody cocktail (the antibodies identify both light and heavy acetylated peptides), and subjected to mass spectrometry analysis in order to identify thousands of individual peptides.
Thousands of peptides were identified in pairs (^12C and ^13C) due to their known mass differences. The amino acid sequence and quantitative ratio (Light/Heavy) of a given peptide in two differentially treated cell lysates were then determined and annotated with their possible protein (gene) sources.
As stated above, three HDAC inhibitors (Compound A, Compound B, and Tubastatin A) were used. Thus, the SILAC method was performed three times, with a different HDAC inhibitor compared to a control each time. Accordingly, there are three pairs of quantitative data in the table below, i.e., Compound A:DMSO, Compound B:DMSO, and Tubastatin A:DMSO. A cut-off of 1.30 fold of change (increase or decrease) was then used to determine “changed” or “+” in the table, and any peptides with a fold of change less than 1.3 fold were determined to be “unchanged” or “0” in the table. Those peptides that were not identified were marked as “NA” in the table. […]

For CN1CCc2c(c3ccccc3n2Cc2ccc(C(=O)NO)cc2)C1 [Tub A], the “light to heavy ratio (L/H ratio) of acetylated peptide LLLFK(ac)TFSR (SEQ ID NO: 514)” value (Heterogeneous nuclear ribonucleoprotein U-like protein 2 [553], gene HNRNPUL2, inhibitor:DMSO) was 0.00 log 2, the “light to heavy ratio (L/H ratio), log 2 scale, acetylated peptide GSK(ac)K(ac)AINK (SEQ ID NO: 792)” value (Histone H2B type 1-M [16:17], gene HIST1H2BM, drug:DMSO) was 0.00 and the “light to heavy ratio (L/H ratio), log 2 scale, acetylated peptide K(ac)AINK(ac)AQK (SEQ ID NO: 793)” value (Histone H2B type 1-M [17:21], gene HIST1H2BM, drug:DMSO) was 0.00. The “light to heavy ratio (L/H ratio) of acetylated peptide PEPAK(ac)SAPAPK(ac)K (SEQ ID NO: 309)” value (Histone H2B type 2-E [6:12], HIST2H2BE, drug:DMSO) was 0.58 log 2, the “light to heavy ratio (L/H ratio) of acetylated peptide AVTK(ac)AQK(ac)K (SEQ ID NO: 560)” value (Histone H2B type 2-E [21:24], gene HIST2H2BE, inhibitor:DMSO) was 0.00 log 2 and the “light to heavy ratio (L/H ratio) of acetylated peptide K(ac)STGGK(ac)APR (SEQ ID NO: 310)” value (Histone H3.2 [10:15], HIST2H3D, HIST2H3A, HIST2H3C, drug:DMSO) was 0.46 log 2. The “light to heavy ratio (L/H ratio), log 2 scale, acetylated peptide K(ac)QLATK(ac)AAR (SEQ ID NO: 796)” value (Histone H3.2 [19:24], gene HIST2H3D, HIST2H3A, HIST2H3C, drug:DMSO) was 0.00, the “light to heavy ratio (L/H ratio) of acetylated peptide GK(ac)GGK(ac)GLGK (SEQ ID NO: 311)” value (Histone H4 [6:9], HIST2H4B, HIST1H4C and other H4 genes, drug:DMSO) was 0.49 log 2 and the “light to heavy ratio (L/H ratio) of acetylated peptide GLGK(ac)GGAK(ac)R (SEQ ID NO: 312)” value (Histone H4 [13:17], HIST2H4B, HIST1H4C and other H4 genes, drug:DMSO) was 0.49 log 2. For the same compound, the “light to heavy ratio (L/H ratio) of acetylated peptide GLGK(ac)GGAKR (SEQ ID NO: 313)” value (Histone H4 [13], HIST2H4B, HIST1H4C and other H4 genes, drug:DMSO) was −0.62 log 2, the “light to heavy ratio (L/H ratio) of acetylated peptide DGLQNEK(ac)NIVSTPVK (SEQ ID NO: 268)” value (Hydroxymethylglutaryl-CoA lyase mitochondrial [48], HMGCL, drug:DMSO) was 0.40 log 2 and the “light to heavy ratio (L/H ratio) of acetylated peptide K(ac)NINCSIEESFQR (SEQ ID NO: 594)” value (Hydroxymethylglutaryl-CoA lyase mitochondrial [137], gene HMGCL, inhibitor:DMSO) was 0.00 log 2. For the same compound, the “light to heavy ratio (L/H ratio) of acetylated peptide, log 2 scale” value (IFVGGLSPDTPEEK(ac)IR (SEQ ID NO: 166), Isoform 1 of Heterogeneous nuclear ribonucleoprotein D0 [197], HNRNPD) was −0.78, the “light to heavy ratio (L/H ratio) of acetylated peptide, log 2 scale” value (IGFGSFVDK(ac)TVLPFVSTVPSK (SEQ ID NO: 180), Isoform Long of Integrin beta-7 [199], ITGB7) was −0.40 and the “light to heavy ratio (L/H ratio) of acetylated peptide, log 2 scale” value (IGIEIIK(ac)R (SEQ ID NO: 174), 60 kDa heat shock protein mitochondrial [469], HSPD1) was −0.42. For the same compound, the “L/H ratio of acetylated peptide YAASSYLSLTPEQWK(ac)SHR (SEQ ID NO: 56)” value (IGLV2-14, IGLC2 [208], log 2 scale, drug vs DMSO) was −0.63, the “light to heavy ratio (L/H ratio) of acetylated peptide, log 2 scale” value (IMK(ac)DLDQCR (SEQ ID NO: 217), Protein S100-A10 [57], S100A10) was 0.72 and the “light to heavy ratio (L/H ratio) of acetylated peptide, log 2 scale” value (IQDK(ac)EGIPPDQQR (SEQ ID NO: 212), Ubiquitin-40S ribosomal protein S27a [33], RPS27A) was −0.50. For the same compound, the “light to heavy ratio (L/H ratio) of acetylated peptide, log 2 scale” value (ISK(ac)EVLAGR (SEQ ID NO: 167), Isoform Short of Heterogeneous nuclear ribonucleoprotein U [417], HNRNPU) was −0.75, the “L/H ratio of acetylated peptide” value (IVQK(ac)HPHTGDTKEEK (SEQ ID NO: 489), Death-associated protein 1 [29], DAP) was 0.00 log 2 and the “light to heavy ratio (L/H ratio) of acetylated peptide, log 2 scale” value (IYFTDSSSK(ac)WQR (SEQ ID NO: 138), Isoform 1 of Adipocyte plasma membrane-associated protein [220], C20orf3) was −0.59. For the same compound, the “light to heavy ratio (L/H ratio), log 2 scale, acetylated peptide ADLIK(ac)QYGR (SEQ ID NO: 798)” value (Inactive hydroxysteroid dehydrogenase-like protein 1 [64], gene HSDL1, drug:DMSO) was 0.00, the “light to heavy ratio (L/H ratio) of acetylated peptide HAHGDQYK(ac)ATDFVADR (SEQ ID NO: 574)” value (Isocitrate dehydrogenase [NADP] mitochondrial [180], gene IDH2, inhibitor:DMSO) was 0.00 log 2 and the “light to heavy ratio (L/H ratio) of acetylated peptide AGTFK(ac)MVFTPK (SEQ ID NO: 606)” value (Isocitrate dehydrogenase [NADP] mitochondrial [193], gene IDH2, inhibitor:DMSO) was 0.00 log 2. The “light to heavy ratio (L/H ratio) of acetylated peptide VVDSMDALDK(ac)VVQER (SEQ ID NO: 318)” value (Isoform 1 of 39S ribosomal protein L47 mitochondrial [144], MRPL47, drug:DMSO) was 0.45 log 2, the “light to heavy ratio (L/H ratio) of acetylated peptide ATVPK(ac)TEIR (SEQ ID NO: 272)” value (Isoform 1 of 40S ribosomal protein S24 [37], RPS24, drug:DMSO) was −0.44 log 2 and the “light to heavy ratio (L/H ratio) of acetylated peptide AEEILEK(ac)GLK (SEQ ID NO: 547)” value (Isoform 1 of 60S ribosomal protein L11 [85], gene RPL11, inhibitor:DMSO) was 0.00 log 2. The “light to heavy ratio (L/H ratio) of acetylated peptide ISK(ac)EEAMR (SEQ ID NO: 299)” value (Isoform 1 of 60S ribosomal protein L11 [159], RPL11, drug:DMSO) was −0.48 log 2, the “light to heavy ratio (L/H ratio) of acetylated peptide AGLVDDFEK(ac)K (SEQ ID NO: 301)” value (Isoform 1 of ATP synthase subunit d mitochondrial [72], ATP5H, drug:DMSO) was 0.66 log 2 and the “light to heavy ratio (L/H ratio) of acetylated peptide VPVPEDK(ac)YTAQVDAEEKEDVK (SEQ ID NO: 290)” value (Isoform 1 of ATP synthase subunit d mitochondrial [85], ATP5H, drug:DMSO) was 0.50 log 2. The “light to heavy ratio (L/H ratio) of acetylated peptide TLK(ac)ALEYVFK (SEQ ID NO: 516)” value (Isoform 1 of Dedicator of cytokinesis protein 2 [738], gene DOCK2, inhibitor:DMSO) was 0.00 log 2, the “light to heavy ratio (L/H ratio), log 2 scale, acetylated peptide ILSK(ac)LSEETK (SEQ ID NO: 759)” value (Isoform 1 of E3 UFM1-protein ligase 1 [614], gene UFL1, drug:DMSO) was 0.00 and the “light to heavy ratio (L/H ratio) of acetylated peptide ELEK(ac)VCNPIITK (SEQ ID NO: 612)” value (Isoform 1 of Heat shock cognate 71 kDa protein [601], gene HSPA8, inhibitor:DMSO) was 0.00 log 2. For the same compound, the “light to heavy ratio (L/H ratio) of acetylated peptide TLVLSDK(ac)HSPQK (SEQ ID NO: 523)” value (Isoform 1 of Histone-lysine N-methyltransferase MLL3 [2809], gene MLL3, inhibitor:DMSO) was 0.00 log 2, the “light to heavy ratio (L/H ratio) of acetylated peptide VK(ac)NELFK (SEQ ID NO: 565)” value (Isoform 1 of Hydroxyacyl-coenzyme A dehydrogenase mitochondrial [127], gene HADH, inhibitor:DMSO) was 0.00 log 2 and the “light to heavy ratio (L/H ratio) of acetylated peptide LVAENK(ac)FGK (SEQ ID NO: 296)” value (Isoform 1 of Hydroxyacyl-coenzyme A dehydrogenase mitochondrial [301], HADH, drug:DMSO) was −0.43 log 2. For the same compound, the “light to heavy ratio (L/H ratio) of acetylated peptide K(ac)SADTLWGIQK (SEQ ID NO: 316)” value (Isoform 1 of L-lactate dehydrogenase A chain [318], LDHA, drug:DMSO) was 1.00 log 2, the “light to heavy ratio (L/H ratio) of acetylated peptide FYK(ac)DVLEVGELAK (SEQ ID NO: 596)” value (Isoform 1 of N-alpha-acetyltransferase 50 NatE catalytic subunit [37], gene NAA50, inhibitor:DMSO) was 0.00 log 2 and the “light to heavy ratio (L/H ratio), log 2 scale, acetylated peptide NLQEAEEWYK(ac)SK (SEQ ID NO: 767)” value (Isoform 1 of Peripherin [288], gene PRPH, drug:DMSO) was 0.00. The “light to heavy ratio (L/H ratio) of acetylated peptide LMK(ac)YLLEQLK (SEQ ID NO: 585)” value (Isoform 1 of Protein MB21D1 [414], gene MB21D1, inhibitor:DMSO) was 0.00 log 2, the “light to heavy ratio (L/H ratio) of acetylated peptide VLSK(ac)EFHLNESGDPSSK (SEQ ID NO: 294)” value (Isoform 1 of Protein SET [154], SET, drug:DMSO) was −1.00 log 2 and the “light to heavy ratio (L/H ratio) of acetylated peptide GYAYVEFENPDEAEK(ac)ALK (SEQ ID NO: 349)” value (Isoform 1 of RNA-binding protein with serine-rich domain 1 [218], RNPS1, drug:DMSO) was 0.00 log 2. For the same compound, the “light to heavy ratio (L/H ratio), log 2 scale, acetylated peptide […](ac)TDQAQDVK (SEQ ID NO: 765)” value (Isoform 1 of Signal recognition particle 9 kDa protein [52], gene SRP9, drug:DMSO) was 0.00 and the “light to heavy ratio (L/H ratio) of acetylated peptide LEMSYSK(ac)FK (SEQ ID NO: 304)” value (Isoform 1 of UDP-N-acetylglucosamine--dolichyl-phosphate N-acetylglucosaminephosphotransferase [320], DPAGT1, drug:DMSO) was 0.48 log 2.
